# Measured values published in ChEMBL document CHEMBL3045943, “Novel N-aryl(alkaryl)-2-[(3-R-2-oxo-2H-[1,2,4]triazino[2,3-c]quinazoline-6-yl)thio]acetamides: synthesis, cytotoxicity, anticancer activity, COMPARE analysis and docking” (2013).
# Tests used:
# Format in all cases: functional
# SNB-19 = assay: Cytotoxicity against Homo sapiens (human) SNB19 cells assessed as cell growth at 10 uM after 48 hr by SRB assay relative to control; details: SNB-19, 48 h, read-out: Activity
# [1] = test system: Photobacterium leiognathi; assay: Growth inhibition of Photobacterium leiognathi Sh1 assessed as bio-luminescence at 0.025 mg/ml after 10 min by acute action test relative to control; parameters: scale not given: the % may be the effect or the level left
# [2] = test system: Photobacterium leiognathi; assay: Growth inhibition of Photobacterium leiognathi Sh1 assessed as bio-luminescence at 0.1 mg/ml after 10 min by acute action test relative to control; parameters: scale not given: the % may be the effect or the level left
# SNB-75 = assay: Cytotoxicity against Homo sapiens (human) SNB75 cells assessed as cell growth at 10 uM after 48 hr by SRB assay relative to control; details: SNB-75, 48 h, read-out: Activity
# U-251 = assay: Cytotoxicity against Homo sapiens (human) U251 cells assessed as cell growth at 10 uM after 48 hr by SRB assay relative to control; details: U-251, 48 h, read-out: Activity
# [3] = test system: Photobacterium leiognathi; assay: Growth inhibition of Photobacterium leiognathi Sh1 assessed as bio-luminescence at 0.25 mg/ml after 10 min by acute action test relative to control; parameters: scale not given: the % may be the effect or the level left
# [4] = test system: Photobacterium leiognathi; assay: Growth inhibition of Photobacterium leiognathi Sh1 assessed as bio-luminescence at 0.025 mg/ml after 16 to 18 hr by chronic action test relative to control; parameters: scale not given: the % may be the effect or the level left
# [5] = test system: Photobacterium leiognathi; assay: Growth inhibition of Photobacterium leiognathi Sh1 assessed as bio-luminescence at 0.25 mg/ml after 16 to 18 hr by chronic action test relative to control; parameters: scale not given: the % may be the effect or the level left
# [6] = test system: Photobacterium leiognathi; assay: Growth inhibition of Photobacterium leiognathi Sh1 assessed as bio-luminescence at 0.1 mg/ml after 16 to 18 hr by chronic action test relative to control; parameters: scale not given: the % may be the effect or the level left
compound,measurement,setting,value
COc1ccc(-c2nn3c(SCC(=O)Nc4ccc(C)cc4)nc4ccccc4c3nc2=O)cc1,growth at 10 µM,SNB-19,59%
same,Activity,[1],112.5%
same,Activity,[2],120%
same,growth at 10 µM,SNB-75,55.9%
same,growth at 10 µM,U-251,24.4%
same,Activity,[3],146.7%
same,Activity,[4],69.8%
same,Activity,[5],27.3%
same,Activity,[6],76.8%
